Results on eight compounds are retold here after ChEMBL document CHEMBL1201862, “PubChem BioAssay data set” (2004).

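Test compounds were applied to cells in 96-well plates for 48 hours at 5 doses. GI50 = concentration required for 50% inhibition of growth.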 Activity calls are given as the source filed them. Cut-off read from the data, not from the text of the source: active = GI50 up to about 1.1 µM and inactive = higher.

Holding throughout (assay): NCI tumour cell line growth inhibition, 48 h
Experiment [1] relates to EKVX.
In experiment [2] the test system is HL-60.
The test system of experiment [3] is CCRF-CEM.
The subject of experiment [4] is SK-OV-3.
The test system of experiment [5] is HCT-15.
Experiment [6] deals with SK-MEL-5.
The test system of experiment [7] is U-251.
In experiment [8] the test system is K562.
For experiment [9], the system named is A549.
Experiment [10] concerns LOX IMVI.
In experiment [11] the test system is SR.
In experiment [12] the test system is ACHN.
The subject of experiment [13] is UACC-257.
In experiment [14] the test system is UACC-62.
In experiment [15] the test system is MOLT-4.
For experiment [16], the system named is RPMI-8226.
Experiment [17] deals with Malme-3M.
Experiment [18] concerns NCI-H460.
The test system of experiment [19] is OVCAR-4.
Experiment [20] concerns SNB-75.

With `CNc1ccc2c(c1)[C@@]1(C)c3ccccc3[C@@H](C2)N1C`, the GI50 in [1] is 32.7 µM (inactive); in experiment [2] it was 14.7 µM (inactive); in experiment [3] it was 20.4 µM (inactive); in experiment [4], 43.8 µM (inactive); in [5], 19 µM; in [6] it was 17.7 µM (inactive). Besides, the GI50 in experiment [7] is 20.4 µM (inactive); in experiment [8], 23.2 µM (inactive); in [9], 30.2 µM (inactive); in [10], 19.5 µM (inactive); in experiment [11], 22.6 µM (inactive); in experiment [12], 30.6 µM (inactive). The GI50 was 23.4 µM (inactive) in experiment [13]; 16.4 µM (inactive) in [14]; 17.5 µM (inactive) in experiment [15]; 15.7 µM (inactive) in experiment [16]; 28 µM (inactive) in experiment [17]; 18.4 µM (inactive) in experiment [18]. For the same compound, the GI50 in experiment [19] is 30.7 µM (inactive).

Regarding `CC(C)(C)c1ccc(C(O)c2ccc(C(C)(C)C)cc2)cc1`, the GI50 in experiment [1] is 17.7 µM (inactive); in [2] it was 17.1 µM (inactive); in [3], 16.9 µM (inactive); in [4] it was 14.7 µM (inactive); in experiment [20], 19.2 µM (inactive); in experiment [5] it was 12.1 µM. In addition, the GI50 in [6] is 16.6 µM (inactive); in experiment [7] it was 13.1 µM (inactive); in experiment [8], 14.7 µM (inactive); in [9], 14.2 µM (inactive); in experiment [10] it was 14.7 µM (inactive); in experiment [11], 23.9 µM (inactive). Further, the GI50 was 16.6 µM (inactive) in experiment [12]; 18.8 µM (inactive) in experiment [13]; 15.8 µM (inactive) in experiment [14]; 17.6 µM (inactive) in experiment [15]; 15.8 µM (inactive) in experiment [17]; 12.8 µM (inactive) in experiment [18]. For the same compound, the GI50 in [19] is 15.2 µM (inactive).

As to `CC(C)=CCN1c2ccc(Cl)cc2NC(=O)CC1C` (stereo unspecified), the GI50 in experiment [1] is 25.8 µM (inactive); in experiment [2], 13 µM (inactive); in experiment [3], 38.6 µM (inactive); in [4] it was 34.7 µM (inactive); in experiment [5], 31.4 µM; in experiment [6], 18 µM (inactive). Moreover, the GI50 in experiment [7] was 27.5 µM (inactive); in [8] it was 65.6 µM (inactive); in experiment [9], 27.2 µM (inactive); in experiment [10], 17.8 µM (inactive); in experiment [11] it was 5.45 µM (inactive); in experiment [12], 19.1 µM (inactive). Moreover, the GI50 in experiment [13] was 21.2 µM (inactive); in [15], 48.4 µM (inactive); in experiment [16] it was 22.1 µM (inactive); in experiment [17], 20.3 µM (inactive); in experiment [18], 17.5 µM (inactive); in experiment [19] it was 22 µM (inactive).

On to `CCOC(=O)C(NC(=O)N(C1=NCC(C)S1)C1CCCCC1)(OC)C(F)(F)F` (stereo unspecified), for which the GI50 was 34.8 µM (inactive) in [1]; 30.2 µM (inactive) in [2]; 25.2 µM (inactive) in [3]; 52.4 µM (inactive) in experiment [4]; 31 µM (inactive) in experiment [20]; 30.1 µM in [5]. Besides, the GI50 in experiment [6] is 23.8 µM (inactive); in [7], 22.6 µM (inactive); in experiment [8] it was 56.9 µM (inactive); in [9], 39.1 µM (inactive); in experiment [10], 19.7 µM (inactive); in [11] it was 39.6 µM (inactive). Besides, the GI50 in experiment [12] is 31.2 µM (inactive); in experiment [13], 56.5 µM (inactive); in experiment [14] it was 32.8 µM (inactive); in experiment [15], 37.8 µM (inactive); in experiment [17] it was 45.8 µM (inactive); in experiment [18], 35.4 µM (inactive). For the same compound, the GI50 in [19] was 40.3 µM (inactive).

For `O=C1NC2(CCCCC2)C2CCCCC(O)C12` (stereo unspecified), the GI50 in [1] is > 100 µM (inactive); in experiment [2] it was > 100 µM (inactive); in [3] it was > 100 µM (inactive); in experiment [20], 57.1 µM (inactive); in experiment [5], above 100 µM; in [7], > 100 µM (inactive). For the same compound, the GI50 in experiment [8], in [9], in experiment [11], in [12], in experiment [13] and in experiment [14] was > 100 µM (inactive) each time. In addition, the GI50 in experiment [15], in experiment [16], in experiment [17] and in [18] was > 100 µM (inactive) each time.

As for `COc1cc(CO)c(CC(=O)NCCCc2ccccc2)cc1OC`, the GI50 is > 100 µM (inactive) in experiment [1]; 38 µM (inactive) in experiment [2]; > 100 µM (inactive) in [3]; > 100 µM (inactive) in experiment [20]; above 100 µM in experiment [5]; 67.9 µM (inactive) in experiment [6]. Moreover, the GI50 was > 100 µM (inactive) in experiment [7]; > 100 µM (inactive) in experiment [8]; > 100 µM (inactive) in experiment [9]; > 100 µM (inactive) in experiment [10]; 9.06 µM (inactive) in experiment [11]; > 100 µM (inactive) in experiment [12]. Further, the GI50 in experiment [13], in [14], in experiment [15], in [17], in experiment [18] and in experiment [19] was > 100 µM (inactive) in each case.

In the case of `CS(=O)(=O)c1n[nH]c2nc(O)nc(O)c12`, the GI50 in experiment [1] is > 10 µM (inactive); in experiment [2], > 10 µM (inactive); in experiment [3] it was > 10 µM (inactive); in experiment [4] it was > 10 µM (inactive); in experiment [20] it was > 10 µM (inactive); in experiment [5], above 10 µM. In addition, the GI50 in experiment [6], in experiment [7], in experiment [9], in experiment [10], in [11] and in experiment [12] was > 10 µM (inactive) each time. For the same compound, the GI50 in [13], in experiment [14], in [15], in experiment [17], in [18] and in experiment [19] was > 10 µM (inactive) each time.

Consider `COC(=O)c1ccc(NC(=O)c2cc(OC)c(OC)c(OC)c2)cc1`, for which the GI50 was 38.4 µM (inactive) in experiment [1]; 2.09 µM (inactive) in experiment [2]; 3.73 µM (inactive) in [3]; 11.3 µM (inactive) in [4]; 42.1 µM (inactive) in [20]; 1.08 µM in experiment [5]. In addition, the GI50 was 0.195 µM (active) in experiment [6]; 0.236 µM (active) in experiment [7]; 1.97 µM (inactive) in experiment [8]; 3.38 µM (inactive) in experiment [9]; 9.31 µM (inactive) in [10]; 1.36 µM (inactive) in [11]. In addition, the GI50 in experiment [12] is 2.71 µM (inactive); in [13], 0.0215 µM (active); in [14], 1.09 µM (active); in [15], 3.93 µM (inactive); in experiment [17] it was 0.644 µM (active); in [18], 2.23 µM (inactive). Besides, the GI50 in experiment [19] was 18.9 µM (inactive).
